# Laboratory results published in PMC10373114, “CDK2 regulates collapsed replication fork repair in CCNE1-amplified ovarian cancer cells via homologous recombination” (NAR Cancer, 2023).
# How the values were obtained:
# [1] = test system: MCF-7 cells; assay: CyQuant proliferation assay; assay type: cell-based; conditions: proliferation, 5 days, CyQuant; mean of two independent replicates; read-out: MCF-7 IC50
# Protocol: (§1) OVCAR-3, COV644, or MCF-7 cells were seeded at 1000 cells/well in 384-well black, clear bottom plates and allowed to adhere overnight at 37°C/5% CO2. The following day, cells were treated with compound in a 10-point dose response, 1:4 dilutions. After 5 days of incubation, CyQuant Direct Proliferation Assay was performed according to the manufacturer's instructions. Data were processed with GraphPad Prism using a four-parameter fit to calculate IC50.
# [2] = Pharmacokinetics (plasma concentrations after oral dose); assay type: in vivo, NOD-SCID mice; conditions: single p.o. dose
# Source text: (A) Chemical structures of BLU2256. […]
# family members. Error bars represent SD of at least duplicate independent experiments. (D) NanoBret assessment of BLU2256 target engagement in indicated CDK complexes expressed in HEK-293 cells. Error bars represent SD of at least duplicate independent experiments. (E) Dose-response curve for pRb T821/826 […]
# Error bars represent SD of at least duplicate independent experiments. (F) Dose-response curve for pLamin S22 inhibition by BLU1851 in OVCAR-3 and COV644 cells. Error bars represent SD of duplicate independent experiments. (G) Do se -response curves in MCF-7, OVCAR-3 cells. Cells were treated with a 10- point dose response of indicated compounds and incubated for 5 days before CyQuant assay was performed. […]
# Contemporaneously, cells were transfected with a 3X-FLAG donor plasmid plus a plasmid containing Cas9 and a single guide RNA (sgRNA), scramble control (sgScr), or an sgRNA targeting beta- actin (sgACTB). […] The percent body weight change is calculated by normalizing to day 0 per treatment group. […] (M) Quantification of Western blot for pRb S807/811 normalized individually to actin and then to vehicle group to calculate % inhibition. […]
# (N) Relative body weight over treatment time. The percent body weight change is calculated by normalizing to day 0 per treatment group. […] The percent body weight change is calculated by normalizing to day 0 per treatment group. […]
# [3] = target: T1, CDK7/CycH1 (Homo sapiens, UniProt P50613); assay: NanoBRET target engagement assay; assay type: binding; conditions: HEK-293T cells transfected with CDK complex
# T1 construct: expressed in transfected cells; host or cells: HEK293
# Protocol: HEK293 cells were prepared to a final concentration of 100 000 cells/ml in 1% fetal bovine serum (FBS) Opti-MEM. Transfection mixtures were prepared with 1 μg of plasmid encoding NanoLuc-fused CDK and 9 μg of plasmid encoding cyclin, diluted in 1 ml Opti-MEM. FuGENE HD (Promega) was added to transfection mixture at a ratio of 30 μl/1 ml. After liposome formation, the lipid:DNA complex was added at a 1:20 ratio to HEK293 cells in suspension. Cells were plated in 384-well tissue culture plates and incubated overnight (20–30 h) at 37°C/5% CO2. Compounds were prepared from DMSO stock solutions and added to cell plates with a final top concentration of 10 000 nM. NanoBRET tracer solution was prepared from 100X tracer solution. For CDK1/cyclin B1, CDK9/cyclin T1, and CDK2/cyclin E1 assays, tracer K10 was used at a final concentration of 0.5 μM, 0.250 μM, and 0.125 μM, respectively. For CDK4/cyclin D1, and CDK6/cyclin D3, tracer K7 was used at a final concentration of 0.0625 μM. For CDK7/cyclin H1, tracer K7 was used at a final concentration of 0.5 μM. The plate was incubated at 37°C/5% CO2 for 2 h. NanoBRET substrate solution was prepared 15 min prior to the assay endpoint using serum-free OptiMEM. […] The plate was then shaken and read using the Perkin Elmer Envision plate reader. The donor emission was measured at 450 nm, followed by acceptor emission at 610 nm. […]
# [4] = test system: OVCAR-3 cells; assay: CyQuant proliferation assay; assay type: cell-based, human; conditions: proliferation, 5 days, mean of two independent replicates
# Protocol: as §1
# [5] = test system: kinases tested (n = 468); assay: KINOMEscan kinome selectivity; assay type: binding; conditions: fraction of kinases with <10% of control at 3 μM among 468 kinases tested
# [6] = test system: OVCAR-3 xenografts; assay: OVCAR-3 xenograft tumor growth inhibition; assay type: in vivo, NOD-SCID mice
# Protocol: Female NOD-SCID mice were purchased from Shanghai Lingchang BioTech Co., Ltd at 6–8 weeks old. Mice were housed in solid bottom polycarbonate ventilated cages at a temperature of 20–26°C in 40–70% humidity. Mice were kept on a 12-h light,
# Twelve-hour dark cycle with regularly changed 100% filtered air. Municipal water and rodent diet were provided ad libitum. The general health of the animals was monitored through gross observation, regular body weight measurement, and monitoring of food and water intake. All procedures related to animal handling, care, and treatment were performed according to the protocol approved by the Institutional Animal Care and Use Committee of Shanghai Chempartner following the guidance of the Association for Assessment and Accreditation of Laboratory Animal Care (AAALAC).
# OVCAR-3 cells were passaged through mice once, and a cell line was rederived from the tumor, named ‘T2A.’ OVCAR-3 T2A cells were cultured in RPMI 1640 media supplemented with 20% FBS and 0.01 mg/ml insulin. To establish the OVCAR-3 xenograft model, 6 × 10^6 cells per mouse were implanted subcutaneously into the right hind flank of NOD-SCID female mice. Cells were suspended in 50% Matrigel and 50% RPMI 1640 media serum free media prior to implantation.
# In OVCAR-3 tumor growth inhibition studies, animals were randomized and treatment began when tumors reached ∼200 mm^3 in size (n = at least eight/group). […] Etoposide was prepared in 5% DMSO + 40% PEG300 + 5%Tween 80 + 50%dd water and dosed intraperitoneally QD at 1.25 mg/kg for 3 days for each week of the study. Olaparib was prepared in 10% HP-ß-CD in water and dosed intraperitoneally QD at 50 mg/kg. Tumor sizes and body weight were measured twice weekly. Tumor sizes were measured in two dimensions using a caliper, and the volume (mm^3) was calculated using the formula: V = 0.5 a x b^2 where a and b are the long and short diameters of the tumor, respectively.
# [7] = target: CDK7/CycH1/MNAT1 (Homo sapiens, UniProt P50613); assay: ATP-competition caliper enzyme assay; assay type: biochemical; conditions: 1 mM ATP
# Chain of CDK7/CycH1/MNAT1 (P50613 whole entry): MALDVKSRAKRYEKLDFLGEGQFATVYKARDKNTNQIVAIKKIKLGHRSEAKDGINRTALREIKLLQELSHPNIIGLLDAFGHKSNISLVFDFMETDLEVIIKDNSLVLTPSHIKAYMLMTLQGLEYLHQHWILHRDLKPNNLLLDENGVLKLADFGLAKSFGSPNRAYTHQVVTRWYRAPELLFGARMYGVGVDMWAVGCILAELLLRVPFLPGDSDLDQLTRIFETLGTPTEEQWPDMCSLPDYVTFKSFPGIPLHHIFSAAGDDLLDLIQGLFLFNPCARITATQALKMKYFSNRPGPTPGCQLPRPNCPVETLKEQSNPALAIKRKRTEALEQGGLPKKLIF
# Chain of CDK7/CycH1/MNAT1 (P51946 whole entry partner): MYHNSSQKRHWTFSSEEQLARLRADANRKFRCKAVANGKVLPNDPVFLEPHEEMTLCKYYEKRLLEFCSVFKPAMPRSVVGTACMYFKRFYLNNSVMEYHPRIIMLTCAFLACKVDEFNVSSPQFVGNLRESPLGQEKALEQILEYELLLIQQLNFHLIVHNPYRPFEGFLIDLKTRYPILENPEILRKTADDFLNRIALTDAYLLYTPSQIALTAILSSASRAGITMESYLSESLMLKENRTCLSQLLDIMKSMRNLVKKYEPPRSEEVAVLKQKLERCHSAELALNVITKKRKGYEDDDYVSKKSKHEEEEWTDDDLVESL
# Chain of CDK7/CycH1/MNAT1 (P51948 whole entry partner): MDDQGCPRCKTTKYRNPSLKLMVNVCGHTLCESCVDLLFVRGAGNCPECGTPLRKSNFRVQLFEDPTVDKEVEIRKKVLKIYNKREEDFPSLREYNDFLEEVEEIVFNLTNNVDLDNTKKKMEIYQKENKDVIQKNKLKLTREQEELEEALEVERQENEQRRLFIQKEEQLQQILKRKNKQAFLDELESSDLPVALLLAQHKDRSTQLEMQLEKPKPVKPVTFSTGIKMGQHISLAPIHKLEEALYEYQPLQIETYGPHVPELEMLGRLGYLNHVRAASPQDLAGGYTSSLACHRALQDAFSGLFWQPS
# T1 sequence (P50613 whole entry): as the sequence (P50613 whole entry) above
# T1 sequence (P51946 whole entry partner): as the sequence (P51946 whole entry partner) above
smiles,measurement,setting,value
CC(C)(O)Cn1cc(-c2nc(Nc3ccc(S(N)(=O)=O)cc3F)ncc2C(F)(F)F)cn1 [BLU2256],IC50,[1],1.28 µM
same,pharmacokinetics compared with BLU1851,[2],superior pharmacokinetics
same,IC50,[3],4.42 µM
same,IC50,[4],0.0825 µM
same,Kinome S (10),[5],0.040
same,tumor growth inhibition,[6]; 3 mg/kg QD PO,sub-efficacious with minor tumor growth inhibition
same,tumor growth inhibition,[6]; 5 mg/kg BID PO,"efficacious dose, inducing tumor stasis"
same,body weight,"[6]; dose titration, PO",without a change in body weight
same,tumor growth inhibition,"[6]; dose titration, PO QD for 3 weeks",dose-dependent tumor growth inhibition
same,inhibition of RB1 phosphorylation in tumors,[6]; on-target activity,dose and time-dependent
same,IC50,[7],> 6.67 µM
